Results published in ChEMBL document CHEMBL3817798, “Cholecystokinin-1 receptor antagonists: 5-hydroxy-5-aryl-pyrrol-2-ones as anticancer agents” (Medchemcomm, 2016).
Activity calls are given as the source filed them. The calls are words filed in the database; no cut-off is given here.

How the values were obtained:
[1] = Displacement of [125]I-CCK-8 from CCK-B receptor in guinea pig cerebral cortex after 2 hrs by gamma counting; type: tissue-based, Cavia porcellus
[2] = target: T1, Cholecystokinin receptor type A (Rattus norvegicus, UniProt P30551); test: Displacement of [125]I-CCK-8 from CCK-A receptor in rat pancreatic membrane after 2 hrs by gamma counting; type: cell membranes
T1 sequence (P30551 whole entry): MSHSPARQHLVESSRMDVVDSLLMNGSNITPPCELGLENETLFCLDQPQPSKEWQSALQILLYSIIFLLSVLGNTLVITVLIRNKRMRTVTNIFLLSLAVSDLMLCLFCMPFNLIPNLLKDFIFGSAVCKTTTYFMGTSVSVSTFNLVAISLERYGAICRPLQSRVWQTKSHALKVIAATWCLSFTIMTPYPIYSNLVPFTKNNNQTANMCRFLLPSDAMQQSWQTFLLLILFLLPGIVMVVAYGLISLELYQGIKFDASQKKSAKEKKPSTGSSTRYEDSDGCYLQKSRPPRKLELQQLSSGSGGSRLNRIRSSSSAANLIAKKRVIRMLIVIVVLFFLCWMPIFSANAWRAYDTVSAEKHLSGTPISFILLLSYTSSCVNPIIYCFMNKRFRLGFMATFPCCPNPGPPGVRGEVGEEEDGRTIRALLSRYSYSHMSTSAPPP

[3] = Antiproliferative activity against human MiaPaCa cells assessed as reduction in cell viability after 3 days by MTT assay; type: functional, cell-based; conditions: MIA PaCa-2, 72 h
[4] = target: T2, Cholecystokinin receptor type A (Homo sapiens) (UniProt P32238); test: […] activity at CCK1 receptor (unknown origin)
T2 sequence (whole entry): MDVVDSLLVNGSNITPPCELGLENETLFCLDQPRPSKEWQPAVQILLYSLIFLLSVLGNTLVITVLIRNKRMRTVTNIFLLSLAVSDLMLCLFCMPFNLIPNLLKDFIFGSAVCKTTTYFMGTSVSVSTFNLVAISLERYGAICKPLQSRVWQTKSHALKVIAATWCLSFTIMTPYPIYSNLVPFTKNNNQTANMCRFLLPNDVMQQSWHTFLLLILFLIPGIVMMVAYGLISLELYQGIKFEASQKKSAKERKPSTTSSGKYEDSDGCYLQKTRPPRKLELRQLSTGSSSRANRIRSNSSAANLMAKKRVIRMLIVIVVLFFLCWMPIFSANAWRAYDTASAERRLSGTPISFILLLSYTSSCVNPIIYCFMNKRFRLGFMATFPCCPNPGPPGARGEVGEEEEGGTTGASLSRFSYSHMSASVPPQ

[5] = Antiproliferative activity against human PANC cells assessed as reduction in cell viability after 3 days by MTT assay; type: functional, cell-based; conditions: 72 h
AGS = test: Antiproliferative activity against human AGS cells assessed as reduction in cell viability after 3 days by MTT assay; type: functional, cell-based; conditions: 72 h
MAC16 [6] = test: Antiproliferative activity against mouse MAC16 cells assessed as reduction in cell viability after 3 days by MTT assay; type: functional, cell-based; conditions: MAC16, 72 h
[7] = Antiproliferative activity against human U373MG cells assessed as reduction in cell viability after 3 days by MTT assay; type: functional, cell-based, U-373MG ATCC; conditions: U373 MG, 72 h
MAC13 = test: Antiproliferative activity against mouse MAC13 cells assessed as reduction in cell viability after 3 days by MTT assay; type: functional, cell-based; conditions: MAC13, 72 h
[8] = target: T3, Cholecystokinin receptor type A (Cavia porcellus) (UniProt Q63931); test: Insurmountable antagonist activity at CCK1 receptor in guinea pig bladder assessed as inhibition of CCK8s induced contraction preincubated 10 mins followed by CCK8s addition
T3 sequence (whole entry): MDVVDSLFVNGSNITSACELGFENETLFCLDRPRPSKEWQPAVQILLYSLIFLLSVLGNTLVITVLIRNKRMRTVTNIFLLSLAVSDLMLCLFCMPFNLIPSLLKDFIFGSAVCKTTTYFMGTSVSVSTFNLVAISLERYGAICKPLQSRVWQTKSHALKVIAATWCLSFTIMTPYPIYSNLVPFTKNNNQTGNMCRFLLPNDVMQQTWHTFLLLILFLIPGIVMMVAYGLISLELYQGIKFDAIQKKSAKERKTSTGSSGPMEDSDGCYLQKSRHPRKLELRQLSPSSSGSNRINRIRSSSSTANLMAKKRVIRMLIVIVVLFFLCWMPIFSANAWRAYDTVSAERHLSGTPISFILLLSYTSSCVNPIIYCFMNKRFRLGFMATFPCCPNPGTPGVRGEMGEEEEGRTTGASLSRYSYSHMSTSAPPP

[9] = target: T4, Cholecystokinin receptor type A (Rattus norvegicus) (UniProt P30551); test: Antagonist activity at CCK1 receptor in rat duodenum assessed as inhibition of electrically stimulated contraction
T4 sequence (whole entry): T1 sequence (P30551 whole entry)

MAC16 [10] = test: Antimetastatic activity against mouse MAC16 cells xenografted in po dosed NSG mouse assessed as reduction of cell migration to lung measured thrice weekly after compound dosage; type: functional, organism-based
[11] = Oral bioavailability in rat; type: ADME, organism-based; conditions: in vivo
[12] = Half life in rat; type: ADME, organism-based; conditions: in vivo
MiaPaCa = test: Antitumor activity against human MiaPaCa cells xenografted in po dosed NSG mouse measured thrice weekly after compound dosage; type: functional, organism-based
MAC16 [13] = test: Antitumor activity against mouse MAC16 cells xenografted in po dosed NSG mouse measured thrice weekly after compound dosage; type: functional, organism-based
[14] = Potency index, ratio of lorglumide IC50 to compound IC50 for human MiaPaCa cells; type: functional

| IC50 [1] [nM] | IC50 [2] [nM] | IC50 (AGS) [nM] | Compound | IC50 [3] [nM] | IC50 [5] [nM] | IC50 (MAC16 [6]) [nM] | IC50 [7] [nM] | IC50 (MAC13) [nM] | also measured |
| --- | --- | --- | --- | --- | --- | --- | --- | --- | --- |
| 840 |  |  | O=C1C=C(Cl)C(O)(c2ccccc2)N1C1CCCC1 (stereo not drawn) |  |  |  |  |  |  |
| > 10000 | 3600 |  | CCCCCCN1C(=O)C=C(Cl)C1(O)c1ccc(Cl)cc1 (stereo not drawn) |  |  |  |  |  |  |
| 3700 | 300 |  | CC(C)N1C(=O)C=C(Cl)C1(O)c1ccc(Cl)cc1 (stereo not drawn) |  |  |  |  |  |  |
| 400 | 8 | 242 | CC(C)CN1C(=O)C=C(Cl)C1(O)c1ccc(Cl)cc1 (stereo not drawn) | 13 | 22 | 86 | 475 | 526 | inhibition [8]: Dose-dependent effect; inhibition [9]: Dose-dependent effect |
| > 10000 | 4000 |  | O=C1C=C(Cl)C(O)(c2ccc(Cl)cc2)N1C1CC1 (stereo not drawn) |  |  |  |  |  |  |
| > 10000 | 7500 |  | O=C1C=C(Cl)C(O)(c2ccccc2)N1C1CC1 (stereo not drawn) |  |  |  |  |  |  |
| > 10000 | 2000 |  | CN1C(=O)C=C(Cl)C1(O)c1ccc(Cl)cc1 (stereo not drawn) |  |  |  |  |  |  |
| > 10000 | 2500 |  | CN1C(=O)C=C(Cl)C1(O)c1ccccc1 (stereo not drawn) |  |  |  |  |  |  |
| > 10000 | 4500 |  | CCCCCCN1C(=O)C=C(Cl)C1(O)c1ccccc1 (stereo not drawn) |  |  |  |  |  |  |
| 900 | 200 |  | CC(C)N1C(=O)C=C(Cl)C1(O)c1ccccc1 (stereo not drawn) |  |  |  |  |  |  |
| > 10000 | 170 | 289 | CCCCCN(CCCCC)C(=O)C(CCC(=O)O)NC(=O)c1ccc(Cl)c(Cl)c1 (stereo not drawn) [LORGLUMIDE SODIUM] | 425 | 316 | 861 | > 5000 | 421 |  |
| 22 | 800 | 53 | O=C1C=C(Cl)C(O)(c2ccccc2)N1Cc1ccccc1 (stereo not drawn) | 230 | 674 | > 1000 | 23 | > 1000 |  |
| 750 | 12 | 222 | CC(C)CN1C(=O)C=C(Cl)C1(O)c1ccc(F)cc1 (stereo not drawn) | 11 | 18 | 76 | 665 | 508 | Activity (MAC16 [10]): Active; bioavailability [11]: 98%; half-life [12]: 3.5 h; TGI (MiaPaCa): Active; TGI (MAC16 [13]): Active |
| 1200 | 20 | 262 | CC(C)CN1C(=O)C=C(Cl)C1(O)c1ccccc1 (stereo not drawn) | 15 | 27 | 96 | 765 | 536 | Ratio IC50 [14]: 20; Activity (MAC16 [10]): Active; TGI (MiaPaCa): Active; TGI (MAC16 [13]): Active |
| > 10000 | > 10000 |  | O=C1C=C(Cl)C(O)(c2ccccc2)N1c1ccccc1 (stereo not drawn) |  |  |  |  |  |  |
| 10000 |  |  | O=C1C=C(Cl)C(O)(c2ccc(Cl)cc2)N1C1CCCC1 (stereo not drawn) |  |  |  |  |  |  |
| 900 | 120 |  | CC(C)(C)N1C(=O)C=C(Cl)C1(O)c1ccccc1 (stereo not drawn) |  |  |  |  |  |  |
| > 10000 | > 10000 |  | O=C1C=C(Cl)C(O)(c2ccccc2)N1C1CCCCC1 (stereo not drawn) |  |  |  |  |  |  |

| Compound | IC50 [1] [nM] | IC50 [2] [nM] | IC50 (AGS) [nM] | IC50 [3] [nM] | IC50 [5] [nM] | IC50 (MAC16 [6]) [nM] | IC50 [7] [nM] | IC50 (MAC13) [nM] | also measured |
| --- | --- | --- | --- | --- | --- | --- | --- | --- | --- |
| CN1C(=O)C(NC(=O)c2cc3ccccc3[nH]2)N=C(c2ccccc2)c2ccccc21 (stereo not drawn) |  |  | > 5000 | 1200 | 480 | 1000 | > 5000 | 1100 | Activity [4]: Active |
| Cc1cccc(NC(=O)N[C@@H]2N=C(c3ccccc3)c3ccccc3N(C)C2=O)c1 [L-365260] |  |  | 675 | > 5000 | > 1000 | > 5000 | 541 | > 5000 |  |
